# Measured values reported in publication PMC6695355, “Alanine Scanning Studies of the Antimicrobial Peptide Aurein 1.2” (Probiotics and Antimicrobial Proteins, 2018).
# Where a SMILES comes first, the peptide text is derived from it.
# Columns and labels:
# [1] = in vitro; format: in vitro ADME; settings: bovine, serum
# Description: To assess serum stability, the peptides (0.5 mg) were dissolved in 4 mL of 25% (v/v) fetal bovine serum (FBS) in PBS and incubated at 37 °C. The aliquots of 100 μL of the test samples were transferred to 96-well polystyrene plates in triplicate for each time point. Samples were quenched at zero time (t0) and after 6 h of incubation at 37 °C by addition of 100 μL of ice-cold acetonitrile and stored at 4 °C for 10 min. Afterwards, the samples were centrifuged at 13,000×g for 20 min at 4 °C and diluted 1:1 with HPLC-grade water. All samples were analyzed using the Waters Alliance e2695 system with Waters Acquity QDa Detector (software–Empower®3). Analyses were conducted on an Agilent Zorbax SB-C18 RP-18 column (4.6 × 50 mm, 1.8-μm particle size, 80-Å pore size) using a linear 30–60% acetonitrile (B) gradient in deionized water (A) over 6 min at 25.0 ± 0.1 °C, at a flow rate of 0.5 mL/min and MS working in selected ion recording (SIR) mode (A—0.1% aqueous formic acid (FA) and B—0.1% FA in acetonitrile). The percentage of peptide remaining intact was calculated from peak areas of samples at t0 and after 6 h of incubation in serum (the % of remaining peptide = peak area after 6 h/peak area at t0). The mass-to-charge ratios selected for SIR mode were based on values obtained from full spectrum analysis of each peptide and are presented in Table 1.
# [2] = tested on: C. albicans ATCC 10231 biofilm; format: cell-based, Candida albicans; settings: ATCC 10231, 24 h
# Description: (§1) The minimum inhibitory concentrations (MICs) of test compounds were assessed by broth microdilution method on 96-well plates, according to the guidelines of Clinical and Laboratory Standards Institute (CLSI). For this purpose, reference strains of bacteria: S. aureus ATCC 25923, E. faecalis PCM 2673, E. coli ATCC 25922, and P. aeruginosa ATCC 9027; and fungus: C. albicans ATCC 10231 were used (The Polish Collection of Microorganism, Polish Academy of Sciences, Wrocław, Poland). Bacteria at initial inoculums of 0.5 × 10^5 CFU/mL in Mueller Hinton Broth (MHB), and fungi at initial inoculums of 2 × 10^3 CFU/mL in RPMI-1640, were exposed to the compounds over the concentration range of 1–512 μg/mL. The polystyrene plates were incubated at 37 °C for 18 h with bacteria and for 24 h with C. albicans. The MIC was taken as the lowest concentration at which a noticeable growth of microorganisms was inhibited. Minimum biofilm eradication concentrations (MBECs) were determined using a previously described protocol. For this purpose, 96-well polystyrene flat-bottom plates and a resazurin (7-hydroxy-3H-phenoxazin-3-one 10-oxide) were used. In this assay, a specific feature of resazurin is utilized, which upon the contact with living cells is metabolized and reduced from the basic blue form to pink resorufin. Briefly, 24-h cultures of microorganisms were diluted 1,000-fold and 100 μL of that suspension was added into the test plates. After 24 h of incubation at 37 °C, the wells of the plates were rinsed three times with phosphate buffer saline (PBS) to remove non-adherent cells. Subsequently, 100 μL of test compounds in concentration range (diluted in appropriate media) were added to each well. After 24 h of incubation at 37 °C, 20 μL of the resazurin (4 mg/mL) was added. The MBEC was read after 1 h. Additionally, anti-adhesive properties of the compounds were also analyzed. The assay was conducted on 96-well polystyrene flat-bottom plates. The preparation of inoculums was followed by a 500-fold dilution of 24-h cultures of microorganisms. Briefly, to evaluate the effect of the peptides in preventing biofilm formation, 50 μL of compounds in concentration range, diluted in appropriate medium, were prepared. Subsequently, the 50 μL of the bacterial/fungal inoculums were added to reach the same microbial density as that in MBEC assay. After 24 h of incubation at 37 °C, the wells were rinsed three times with PBS and the fresh media with resazurin (0.6 mg/mL) were added. Then, after 1 h of incubation, the minimum biofilm inhibitory concentrations (MBIC) were read. MBECs as well as MBICs were determined as the lowest concentration at which the reduction of resazurin was lower or equal (10% ± 0.5%) as compared to positive (100%) and negative (0%) controls. All experiments were performed in triplicate.
# [3] = tested on: C. albicans ATCC 10231; format: cell-based, Candida albicans; settings: ATCC 10231, 24 h
# Description: as §1
# [4] = tested on: C. albicans ATCC 10231 biofilm formation; format: cell-based, Candida albicans; settings: ATCC 10231, 24 h
# Description: as §1
# [5] = tested on: S. aureus ATCC 25923; format: cell-based, Staphylococcus aureus; settings: ATCC 25923, 18 h
# Description: as §1
# [6] = tested on: S. aureus ATCC 25923 biofilm formation; format: cell-based, Staphylococcus aureus; settings: ATCC 25923, 24 h
# Description: as §1
# [7] = tested on: S. aureus ATCC 25923 biofilm; format: cell-based, Staphylococcus aureus; settings: ATCC 25923, 24 h
# Description: as §1
# [8] = tested on: human red blood cells (RBCs); test: Hemolysis assay; format: cell-based; settings: red cells of human, 1 h
# Description: The hemolytic activity of the peptides was determined using fresh human red blood cells (RBCs) collected from a healthy human donor according to the procedure described in the literature. Fresh RBCs with EDTA as anticoagulant were rinsed three times with a PBS by centrifugation at 800×g for 10 min and resuspension in PBS. Serial dilution of the peptides in PBS (1–256 μg/mL) on 96-well polystyrene plates was prepared and the stock solution of RBCs was added up to a final volume of 100 μL with a 4% concentration of erythrocytes (v/v). The control wells for 0 and 100% hemolysis contained of RBCs suspended in PBS and 1% of Triton-X 100, respectively. Subsequently, the plates were incubated for 1 h at 37 °C and then centrifuged at 800×g for 10 min at 4 °C (Sorvall ST 16R Centrifuge, Thermo Scientific). After centrifugation, the supernatant was carefully […] to new microtiter plates and the release of hemoglobin was measured at 540 nm (Multiskan™ GO Microplate Spectrophotometer, Thermo Scientific). All experiments were conducted in triplicate.
# [9] = tested on: E. faecalis PCM 2673 biofilm; format: cell-based, Enterococcus faecalis; settings: 24 h
# Description: as §1
# [10] = tested on: E. faecalis PCM 2673; format: cell-based, Enterococcus faecalis; settings: PCM 2673, 18 h
# Description: as §1
# [11] = tested on: E. faecalis PCM 2673 biofilm formation; format: cell-based, Enterococcus faecalis; settings: 24 h
# Description: as §1
# [12] = tested on: P. aeruginosa ATCC 9027 biofilm; format: cell-based, Pseudomonas aeruginosa; settings: ATCC 9027, 24 h
# Description: as §1
# [13] = tested on: P. aeruginosa ATCC 9027; format: cell-based, Pseudomonas aeruginosa; settings: ATCC 9027, 18 h
# Description: as §1
# [14] = tested on: P. aeruginosa ATCC 9027 biofilm formation; format: cell-based, Pseudomonas aeruginosa; settings: ATCC 9027, 24 h
# Description: as §1
# [15] = tested on: E. coli ATCC 25922 biofilm formation; format: cell-based, Escherichia coli; settings: ATCC 25922, 24 h
# Description: as §1
# [16] = tested on: E. coli ATCC 25922 biofilm; format: cell-based, Escherichia coli; settings: ATCC 25922, 24 h
# Description: as §1
# [17] = tested on: E. coli ATCC 25922; format: cell-based, Escherichia coli; settings: ATCC 25922, 18 h
# Description: as §1
"remaining at 6 h, 0.125 mg/mL [1] [%]","MIC, C. albicans ATCC 10231 [3] [µg/mL]","MIC, S. aureus ATCC 25923 [5] [µg/mL]","MIC, E. faecalis PCM 2673 [10] [µg/mL]",Structure (SMILES),"MBEC, C. albicans ATCC 10231 [2] [µg/mL]","MBIC, C. albicans ATCC 10231 [4] [µg/mL]","MBIC, S. aureus ATCC 25923 [6] [µg/mL]","MBEC, S. aureus ATCC 25923 [7] [µg/mL]",Percentage of hemolysis at 1 μg/mL [8] [%],Percentage of hemolysis at 2 μg/mL [8] [%],Percentage of hemolysis at 4 μg/mL [8] [%],Percentage of hemolysis at 8 μg/mL [8] [%],Percentage of hemolysis at 16 μg/mL [8] [%],Percentage of hemolysis at 32 μg/mL [8] [%],Percentage of hemolysis at 64 μg/mL [8] [%],Percentage of hemolysis at 128 μg/mL [8] [%],Percentage of hemolysis at 256 μg/mL [8] [%],"MBEC, E. faecalis PCM 2673 [9] [µg/mL]","MBIC, E. faecalis PCM 2673 [11] [µg/mL]","MBEC, P. aeruginosa ATCC 9027 [12] [µg/mL]",other results
29,256,> 512,256,CC[C@H](C)[C@H](NC(=O)[C@H](CCCCN)NC(=O)[C@H](CCCCN)NC(=O)[C@H](C)NC(=O)[C@@H](NC(=O)[C@H](CC(=O)O)NC(=O)[C@H](Cc1ccccc1)NC(=O)[C@H](CC(C)C)NC(=O)CN)[C@@H](C)CC)C(=O)N[C@@H](C)C(=O)N[C@@H](CCC(=O)O)C(=O)N[C@@H](CO)C(=O)N[C@@H](Cc1ccccc1)C(N)=O [Peptide I6A] (H-GLFDIAKKIAESF-NH2),> 512,4,> 512,> 512,0.4,0.6,0.5,0.3,0.1,0.0,0.1,0.1,0.1,> 512,> 512,> 512,"MIC, P. aeruginosa ATCC 9027 [13]: > 512 µg/mL; MBIC, P. aeruginosa ATCC 9027 [14]: > 512 µg/mL; MBIC, E. coli ATCC 25922 [15]: 512 µg/mL; MBEC, E. coli ATCC 25922 [16]: > 512 µg/mL; MIC, E. coli ATCC 25922 [17]: 512 µg/mL"
6,512,> 512,128,CC[C@H](C)[C@H](NC(=O)[C@H](CC(=O)O)NC(=O)[C@H](Cc1ccccc1)NC(=O)[C@H](CC(C)C)NC(=O)CN)C(=O)N[C@H](C(=O)N[C@@H](CCCCN)C(=O)N[C@@H](CCCCN)C(=O)N[C@@H](C)C(=O)N[C@@H](C)C(=O)N[C@@H](CCC(=O)O)C(=O)N[C@@H](CO)C(=O)N[C@@H](Cc1ccccc1)C(N)=O)[C@@H](C)CC [Peptide I9A] (H-GLFDIIKKAAESF-NH2),> 512,16,> 512,> 512,0.6,0.6,0.3,0.1,0.0,0.0,0.0,0.0,0.0,> 512,> 512,> 512,"MIC, P. aeruginosa ATCC 9027 [13]: > 512 µg/mL; MBIC, P. aeruginosa ATCC 9027 [14]: > 512 µg/mL; MBIC, E. coli ATCC 25922 [15]: >512 µg/mL; MBEC, E. coli ATCC 25922 [16]: > 512 µg/mL; MIC, E. coli ATCC 25922 [17]: 512 µg/mL"
6,256,> 512,512,CC[C@H](C)[C@H](NC(=O)[C@H](CCCCN)NC(=O)[C@H](CCCCN)NC(=O)[C@@H](NC(=O)[C@@H](NC(=O)[C@H](CC(=O)O)NC(=O)[C@H](Cc1ccccc1)NC(=O)[C@H](C)NC(=O)CN)[C@@H](C)CC)[C@@H](C)CC)C(=O)N[C@@H](C)C(=O)N[C@@H](CCC(=O)O)C(=O)N[C@@H](CO)C(=O)N[C@@H](Cc1ccccc1)C(N)=O [Peptide L2A] (H-GAFDIIKKIAESF-NH2),> 512,8,> 512,> 512,0.3,0.6,0.4,0.2,0.0,0.0,0.0,0.0,0.0,> 512,> 512,> 512,"MIC, P. aeruginosa ATCC 9027 [13]: 512 µg/mL; MBIC, P. aeruginosa ATCC 9027 [14]: > 512 µg/mL; MBIC, E. coli ATCC 25922 [15]: 512 µg/mL; MBEC, E. coli ATCC 25922 [16]: 512 µg/mL; MIC, E. coli ATCC 25922 [17]: 256 µg/mL"
